# pIC50: −log10 of the molar value. Numbered stars: 1 amine (or outer) side, 2 acyl side, 3 side chain; on linkers, the order of the positions; unused ones are H or OH. Square brackets hold non-standard residues; d marks the D form. Peptide text beside a SMILES is read from it. Cha = N[C@@H](CC1CCCCC1)C(=O)O; Suc = O=C(CCC(=O)[*:2])[*:1]; Ava = NCCCCC(=O)O
# System: platelet
# Test: Dog antiplatelet activity
# Assay type: cell-based
# Details: read-out: Dog Antiplatelet IC₅₀
row,pIC50,SMILES
1,5.22,CC[C@H](C)[C@H](NC(=O)[C@@H]1CCCN1C(=O)[C@H](CCC(=O)O)NC(=O)[C@H](Cc1c[nH]c2ccccc12)NC(=O)[C@H](CC(=O)O)NC(=O)CNC(=O)CCCCNC(=N)N)C(=O)N1CCC[C@H]1C(=O)N[C@@H](CCC(=O)O)C(=O)N[C@@H](CCC(=O)O)C(=O)N[C@@H](C)C(=O)N[C@@H](CC1CCCCC1)C(=O)N[C@H](CCC(=O)O)C(=O)O [Example 1]
2,3.60,CC[C@H](C)[C@H](NC(=O)[C@H](CCC(=O)O)NC(=O)[C@H](CCC(=O)O)NC(=O)[C@H](Cc1c[nH]c2ccccc12)NC(=O)[C@H](CC(=O)O)NC(=O)CNC(=O)CCCCN)C(=O)N1CCC[C@H]1C(=O)N[C@@H](CCC(=O)O)C(=O)N[C@@H](CCC(=O)O)C(=O)N[C@@H](C)C(=O)N[C@@H](CC1CCCCC1)C(=O)N[C@H](CCC(=O)O)C(=O)O [Example 2] (H-[Ava]GDWEEIPEEA[Cha][dE]-OH)
3,4.38,CC[C@H](C)[C@H](NC(=O)[C@@H]1CCCN1C(=O)[C@H](CCC(=O)O)NC(=O)[C@H](Cc1ccc(O)cc1)NC(=O)CCC(=O)O)C(=O)N1CCC[C@H]1C(=O)N[C@@H](CCCNC(=N)N)C(=O)NCC(=O)N[C@@H](CC(=O)O)C(=O)N[C@@H](Cc1ccccc1)C(=O)N[C@H](CCC(=O)O)C(=O)O [Example 4] (Suc-YEPIPRGDF[dE]-OH)

row,SMILES,pIC50
1,"CC[C@H](C)[C@H](NC(=O)[C@@H]1CCCN1C(=O)[C@H](CCC(=O)O)NC(=O)[C@H](Cc1ccc(OC)cc1)NC(=O)[C@H](CC(=O)O)NC(=O)CNC(=O)CCCCN)C(=O)N1CCC[C@H]1C(=O)N[C@@H](CCC(=O)O)C(=O)N[C@@H](CCC(=O)O)C(=O)N[C@@H](C)C(=O)N[C@@H](CC1CCCCC1)C(=O)N[C@H](CCC(=O)O)C(=O)O [Example 3, 5AP-Gly-Asp-Tyr(OCH₃)-Glu-Pro-Ile-Pro-Glu-Glu-Ala-Cha-glu-OH]",3.55
2,"CC[C@H](C)[C@H](NC(=O)[C@@H]1CCCN1C(=O)[C@H](CCC(=O)O)NC(=O)[C@H](Cc1ccc(OC)cc1)NC(=O)[C@H](CC(=O)O)NC(=O)CNC(=O)CCCCNC(=N)N)C(=O)N1CCC[C@H]1C(=O)N[C@@H](CCC(=O)O)C(=O)N[C@@H](CCC(=O)O)C(=O)N[C@@H](C)C(=O)N[C@@H](CC1CCCCC1)C(=O)N[C@H](CCC(=O)O)C(=O)O [Example 5, 5GP-Gly-Asp-Tyr(OCH₃)-Glu-Pro-Ile-Pro-Glu-Glu-Ala-Cha-glu-OH]",5.00

# Source: EP0468448B1, “Analogs of hirudin having antiplatelet activity” (MERRELL PHARMACEUTICALS INC., priority 1990, dated 1992)
